Some results are limits rather than exact numbers.

The values below come from paper PMC6431625 (Frontiers in Endocrinology, 2019).

In one test the test system is FP. Also on record: method as in PMID 10454504. The settings on record: cited from earlier work.
Another test has as its target T1, AT1R[Δ325]-Venus (Homo sapiens, UniProt P30556+P43088).
T1 construct: SP (signal peptide) (N); expressed in transfected cells; host or cells: HEK 293
The class given is cell-based. The following applies: ligand 1 μM.

The next test addresses T2, AT1R-Venus (Homo sapiens, UniProt P30556).
T2 construct: SP (signal peptide) (N); expressed in transfected cells; host or cells: HEK 293
T2 sequence (P30556 1-359): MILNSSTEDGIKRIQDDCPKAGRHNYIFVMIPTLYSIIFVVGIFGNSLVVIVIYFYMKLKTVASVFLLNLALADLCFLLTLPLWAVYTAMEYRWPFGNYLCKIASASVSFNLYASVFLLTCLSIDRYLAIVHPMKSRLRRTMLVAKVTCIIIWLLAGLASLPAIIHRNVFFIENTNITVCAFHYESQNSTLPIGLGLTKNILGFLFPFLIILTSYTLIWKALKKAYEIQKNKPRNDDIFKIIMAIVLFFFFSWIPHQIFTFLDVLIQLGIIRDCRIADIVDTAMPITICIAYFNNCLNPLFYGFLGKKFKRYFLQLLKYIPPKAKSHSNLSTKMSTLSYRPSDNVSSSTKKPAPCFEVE
Format: cell-based. The settings on record: ligand 1 μM.

For the next test, the target named is T3, AT1R-RlucII (Homo sapiens, UniProt P30556+P43088).
T3 construct: SP (signal peptide) (N); expressed in transfected cells; host or cells: HEK293
T3 sequence (P43088 whole entry, one chain of several): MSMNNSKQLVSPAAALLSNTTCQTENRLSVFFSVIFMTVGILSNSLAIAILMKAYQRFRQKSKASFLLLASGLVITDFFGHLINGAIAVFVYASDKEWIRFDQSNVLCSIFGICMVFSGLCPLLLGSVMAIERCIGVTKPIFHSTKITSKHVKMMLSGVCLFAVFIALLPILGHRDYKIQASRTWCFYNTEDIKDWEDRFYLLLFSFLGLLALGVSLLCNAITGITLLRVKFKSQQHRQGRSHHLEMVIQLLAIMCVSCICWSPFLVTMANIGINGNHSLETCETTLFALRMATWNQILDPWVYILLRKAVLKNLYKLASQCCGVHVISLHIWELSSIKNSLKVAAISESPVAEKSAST
Kind of test: Enhanced bystander BRET trafficking of AT1R-RlucII co-expressed with wildtype FP (Lyn-rGFP, rGFP-FYVE). The class given is cell-based. The settings on record: ligand 1 μM; co-expressed WT FP; HEK293.

Another test addresses T4, AT1R-WT/FP-Venus dimer (Homo sapiens, UniProt P30556+P43088).
T4 construct: SP (signal peptide) (N); expressed in transfected cells; host or cells: HEK 293
The class given is cell-based. The following applies: ligand 1 μM.

Another test deals with OTR-Venus. The class given is cell-based, human. The following applies: ligand 1 μM.
The next test concerns the target T5, FP-RlucII (Homo sapiens, UniProt P43088).
T5 construct: SP (signal peptide) (N); expressed in transfected cells; host or cells: HEK293
Kind of test: Enhanced bystander BRET trafficking of FP-RlucII co-expressed with wildtype AT1R (Lyn-rGFP, rGFP-FYVE). The class given is cell-based. The following applies: co-expressed WT-AT1R; HEK293; PGF2α 1 μM; Ang II data not shown.

In a further test the target is T6, FP-Venus (Homo sapiens, UniProt P43088).
T6 construct: SP (signal peptide) (N); expressed in transfected cells; host or cells: HEK 293
T6 sequence (P43088 whole entry): as the sequence (P43088 whole entry, one chain of several) above
Format: cell-based. The following applies: ligand 1 μM.

Test [1] concerns the target T7, SP-FLAG-hAT1R-KPVAT-Venus (human, UniProt P30556 1-359).
T7 construct: human angiotensin II type 1 receptor, wild type; amplified from pcDNA3/SP-FLAG-hAT1R-WT; A signal peptide (SP); BRET acceptor; also called AT1R-Venus; angiotensin II type 1 receptor; not shown: Venus (after the linker KPVAT), C-terminal, kept
T7 sequence (looked up): T2 sequence (P30556 1-359)
The experiment in a line: FRET or BRET; living HEK 293 cells, 37°C, Kreb's buffer pH 7.4, coelenterazine h; β-arrestin-RlucII donor, receptor-Venus acceptor expressed alone (no partner receptor); ligand-induced ΔBRET after Ang II (1 μM), followed 90 min. The following applies: partners not purified.

Test [2] concerns the target T7, SP-FLAG-hAT1R-KPVAT-Venus. Kind of test: FRET or BRET; living HEK 293 parental cells, 37°C, Kreb's buffer pH 7.4; β-arrestin-RlucII donor, receptor-Venus acceptor co-expressed with the untagged partner receptor (AT1R-Venus, AT1R[Δ325]-Venus or OTR-Venus with FP-WT; FP-Venus with AT1R-WT); ΔBRET after PGF2α (1 μM); also other FP ligands, AT1R antagonists and endocytosis inhibitors. The following applies: partners not purified.

T4 sequence (P43088 whole entry, one chain of several): as above
T5 sequence (P43088 whole entry, one chain of several): as above
T1 sequence (P43088 whole entry, stated change not applied, one chain of several): as the sequence (P43088 whole entry, one chain of several) above

For the molecule `O=C(O)CCC/C=C\C[C@@H]1[C@@H](/C=C/[C@H](O)C2Cc3ccccc3C2)[C@@H](F)C[C@@H]1O` [AL-8810], the “Agonist properties at FP” value with FP is given as “partial agonist properties”.
As for `CCCCC[C@H](O)/C=C/[C@@H]1[C@@H](C/C=C\CCCC(=O)O)[C@@H](O)C[C@H]1O` [PGF2α, prostaglandin F2α], at AT1R[Δ325]-Venus, the “Ligand-induced recruitment of β-arrestin 1/2-RlucII to AT1R[Δ325]-Venus in the context of the dimer” value is “No responses were detected”. In addition, the “Ligand-induced recruitment of β-arrestin 1/2-RlucII to AT1R-Venus alone” value at AT1R-Venus is “no responses were detected”. Moreover, the “Trafficking of AT1R-RlucII (membrane Lyn-rGFP and endosome rGFP-FYVE bystander BRET)” value at AT1R-RlucII was “time-dependent loss of the membrane signal and an increase in the endosomal population”. Besides, the “Ligand-induced recruitment of β-arrestin 1/2-RlucII to the AT1R-WT/FP-Venus dimer” value at AT1R-WT/FP-Venus dimer is listed as “did not induce recruitment”. Moreover, the “Ligand-induced recruitment of β-arrestin 1/2-RlucII to OTR-Venus in the context of the dimer” value in the test on OTR-Venus was “No responses were detected”. Besides, the “Trafficking of FP-RlucII (membrane Lyn-rGFP and endosome rGFP-FYVE bystander BRET)” value at FP-RlucII is “loss of membrane-localized receptor and a transient increase in an early endosomal population”. The “Ligand-induced recruitment of β-arrestin 1/2-RlucII to FP-Venus alone” value at FP-Venus is “did not induce recruitment”.

B1: β-arrestin 1-RlucII (natural protein, UniProt P49407 1-418, looked up)
chain: MGDKGTRVFKKASPNGKLTVYLGKRDFVDHIDLVDPVDGVVLVDPEYLKERRVYVTLTCAFRYGREDLDVLGLTFRKDLFVANVQSFPPAPEDKKPLTRLQERLIKKLGEHAYPFTFEIPPNLPCSVTLQPGPEDTGKACGVDYEVKAFCAENLEEKIHKRNSVRLVIRKVQYAPERPGPQPTAETTRQFLMSDKPLHLEASLDKEIYYHGEPISVNVHVTNNTNKTVKKIKISVRQYADICLFNTAQYKCPVAMEEADDTVAPSSTFCKVYTLTPFLANNREKRGLALDGKLKHEDTNLASSTLLREGANREILGIIVSYKVKVKLVVSRGGLLGDLASSDVAVELPFTLMHPKPKEEPPHREVPENETPVDTNLIELDTNDDDIVFEDFARQRLKGMKDDKEEEEDGTGSPQLNNR
notes: β-arrestin 1; BRET donor; also called βarr1-RlucII
As for B1, the “t1/2 of ligand-induced recruitment (BRET)” value in [1] is less than 2 min; in test [2] it was 20 min.
